Measurements reported in patent US8034797B2, “Triazene compounds for the treatment of cancer” (Trin Therapeutics GmbH, priority 2007, dated 2011).
In brackets after ≈: the same amount, converted by molar mass. Counter-ions that a name gives are not always drawn. Blank lines part the entries; values can stand above or below the compound they belong to.

Key:
Tumour-carrying mice = test: Nephrological tolerability (kidney post-mortem and histology); format: in vivo
Procedure: A control group was treated only with the carrier according to a twice weekly treatment scheme.
When the 28-day treatment period had ended, a post-mortem was carried out on the mice. […] The kidneys of all the animals in the test groups were removed by operation, fixed in formalin according to standard methods, embedded in paraffin and processed for HE staining.

MAXF 401 = MAXF 401 breast tumour xenograft in nude mice; format: in vivo; conditions: for Mortality: deaths/animals
Procedure: All the tests were carried out using female nude mice under standard conditions for the keeping of animals with controlled illumination and temperature. The animals were given water and food as desired.
(§1) The increase in the volume of the individual tumours was measured using microcallipers, and the size of the tumour was calculated according to the formula a*b^2/2 (where a is the largest diameter of the tumour and b is the vertical axis). When the tumour volume had increased to 80-120 mm^3, the animals were allocated at random into test groups of in each case 6 animals.
The test compounds (in the form of sodium salts) were dissolved in a saline solution, and 5% Klucel (hydroxypropylcellulose) was added in order to dissolve all the test compounds in the same carrier. […] A volume of 10 ml/kg body weight was injected. Animals that received only the carrier served as control. The test compounds were treated according to the scheme of twice weekly administration over a period of […]. The tumour volume and the body weight were checked twice weekly, and the relative tumour volumes were calculated as the ratio of tumour size to body weight.
On the basis of the relative tumour volumes of the animals treated with the test compounds compared with the tumour volumes of the controls treated only with the carrier, the T/C values were calculated and were used as the index of anti-tumour activity.
Subcutaneous implantation of the tumour and the determination of the tumour volume were carried out as described hereinbefore. The above-mentioned salts of the test substance were administered by ip injection twice weekly in the mentioned doses in the form of an aqueous solution, over a period of 4 weeks. […]
Subcutaneous implantation of the tumour and the determination of tumour volumes were carried out as described hereinbefore. The test substance was administered by ip injection twice weekly in the mentioned doses in the form of the sodium salt as an aqueous solution, over a period of 4 weeks.

Solubility in water = format: physicochemical; conditions: for solubility: water
MEXF 462 = MEXF 462 melanoma xenograft model; format: in vivo, nude mice; conditions: for outcome of treatment: equimolar doses ip twice weekly over 4 weeks
Procedure: as §1, with “Breast tumours (MAXF 401) were implanted subcutaneously into the rear members of the mice aged 10 weeks. The” for “The”, “animals. […]” for “animals.”
The anti-tumour activity of the compounds was determined in the MEXF 462 xenograft tumour model in the nude mouse. Subcutaneous implantation of the tumour and the determination of tumour volumes were carried out as described hereinbefore. Groups of in each case 8 animals were used.
Equimolar amounts of the compound of Example 8 were administered ip twice weekly in the form of a 5% DMSO solution over the mentioned period.
The progression over time of the anti-tumour action, expressed in % of the tumour volume at the beginning of the test, over the period of therapy is shown in Table 3.

Solubility in DMSO = format: physicochemical; conditions: organic solvent or mixture, room temperature
[1] = kidney histology after 28-day twice weekly ip treatment, equimolar to 450 mg of stock composition, affected/animals
[2] = sodium salts ip, equimolar to 350 mg/kg of comparison compound, twice weekly over 5 weeks, 100% = no activity
[3] = sodium salts ip, equimolar to 350 mg/kg of comparison compound, twice weekly over 5 weeks
[4] = room temperature, read-out: solubility in water at room temperature

SMILES: CN(C)N=Nc1ccc(C(=O)c2ccc(OCC(=O)[O-])cc2)cc1.[Na+] [Ex. 30 of DE 1793115A]
- macroscopic findings of the kidneys at post-mortem (Tumour-carrying mice; after 28-day treatment period): macroscopic changes (swelling, local discolouration) of the kidneys
- renal histology finding (Tumour-carrying mice; after 28-day treatment period): Marked focal tubular necrosis of the kidneys
- Acute single-cell necrosis (Tumour-carrying mice; [1]): 4/9
- Focal tubular necrosis (Tumour-carrying mice; [1]): 3/9
- reduction in the tumour volume development (MAXF 401; 350 mg/kg ip): 50%
- T/C value (MAXF 401; [2]): 48.5%
- Mortality (MAXF 401; [3]): 2/6

- melting point: 104 to 105 °C
SMILES: COC(=O)CNC(=O)CCOc1ccc(C(=O)c2ccc(/N=N/N(C)C)cc2)cc1 [Example 1]

SMILES: CN(C)/N=N/c1ccc(C(=O)c2ccc(OCCC(=O)NCC(=O)O)cc2)cc1 [Example 2, {3-[4(4-[(1E)-3,3-dimethyl-1-triazenyl]-benzoyl)-phenoxyl]propionylamino} acetic acid]
- T/C value (MAXF 401; [2]): 3.4%
- Mortality (MAXF 401; [3]): 0/6

SMILES: CN(C)/N=N/c1ccc(C(=O)c2ccc(OCC(=O)NCC(=O)O)cc2)cc1 [Example 4, {2-[4-(4-[(1E)-3,3-dimethyl-1-triazenyl]-benzoyl)-phenoxy]-acetylamino}acetic acid]
- T/C value (MAXF 401; [2]): 12.6%
- Mortality (MAXF 401; [3]): 0/6

SMILES: CN(C)/N=N/c1ccc(C(=O)c2ccc(OCC(=O)NCC(=O)O)cc2)cc1 [Example 4a]
- T/C value (MAXF 401; 400 mg/kg sodium salt ip twice weekly, after 4 weeks' therapy): 12
- remission (MAXF 401; 500 mg/kg sodium salt ip twice weekly, within 3 weeks of treatment): complete remission
- salting-out effect in 0.9% NaCl (Solubility in water; 0.9% NaCl): pronounced salting-out effect
- solubility in water at 25° C. (Solubility in water; 25° C.): about 4 g/litre
- solubility in water at 25° C. (Solubility in water; 25° C.; listed as Example 4a)): 4 mg/mL (≈ 10.4 mM)

- solubility (Solubility in water; 25 °C, 25° C., read-out: solubility in water at 25° C.): ~400 mg/mL
SMILES: CN(C)/N=N/c1ccc(C(=O)c2ccc(OCCC(=O)NC(CCC(N)=O)C(=O)O)cc2)cc1 (centres unmarked) [Example 7, 4-carbamoyl-2-{3-[4-(4-[(1E)-3,3-dimethyl-1-triazenyl]-benzoyl)-phenoxy]-propionylamino}-butanoic acid sodium salt]
- tumour volume in % of the tumour volume at the beginning of the test, Mean (MEXF 462; day 0, 350 mg/kg ip twice weekly): 100%
- tumour volume in % of the tumour volume at the beginning of the test, Mean (MEXF 462; day 3, 350 mg/kg ip twice weekly): 278%
- tumour volume in % of the tumour volume at the beginning of the test, Mean (MEXF 462; day 7, 350 mg/kg ip twice weekly): 172%
- tumour volume in % of the tumour volume at the beginning of the test, Mean (MEXF 462; day 11, 350 mg/kg ip twice weekly): 73%
- tumour volume in % of the tumour volume at the beginning of the test, Mean (MEXF 462; day 14, 350 mg/kg ip twice weekly): 49%
- tumour volume in % of the tumour volume at the beginning of the test, Mean (MEXF 462; day 18, 350 mg/kg ip twice weekly): 24%
- tumour volume in % of the tumour volume at the beginning of the test, Mean (MEXF 462; day 21, 350 mg/kg ip twice weekly): 6%
- tumour volume in % of the tumour volume at the beginning of the test, Mean (MEXF 462; day 25, 350 mg/kg ip twice weekly): 2%
- tumour volume in % of the tumour volume at the beginning of the test, Mean (MEXF 462; day 28, 350 mg/kg ip twice weekly): 0.3%
- outcome of treatment (MEXF 462): complete remission

- solubility (Solubility in DMSO): 833 mg/mL (≈ 2100 mM)
SMILES: CN(C)/N=N/c1ccc(C(=O)c2ccc(OCCC(=O)NCC(N)=O)cc2)cc1 [Example 8]
- tumour volume in % of the tumour volume at the beginning of the test, Mean (MEXF 462; day 0, 285 mg/kg ip twice weekly, 5% DMSO solution): 100%
- tumour volume in % of the tumour volume at the beginning of the test, Mean (MEXF 462; day 3, 285 mg/kg ip twice weekly, 5% DMSO solution): 293%
- tumour volume in % of the tumour volume at the beginning of the test, Mean (MEXF 462; day 7, 285 mg/kg ip twice weekly, 5% DMSO solution): 369%
- tumour volume in % of the tumour volume at the beginning of the test, Mean (MEXF 462; day 11, 285 mg/kg ip twice weekly, 5% DMSO solution): 174%
- tumour volume in % of the tumour volume at the beginning of the test, Mean (MEXF 462; day 14, 285 mg/kg ip twice weekly, 5% DMSO solution): 134%
- tumour volume in % of the tumour volume at the beginning of the test, Mean (MEXF 462; day 18, 285 mg/kg ip twice weekly, 5% DMSO solution): 107%
- tumour volume in % of the tumour volume at the beginning of the test, Mean (MEXF 462; day 21, 285 mg/kg ip twice weekly, 5% DMSO solution): 151%
- tumour volume in % of the tumour volume at the beginning of the test, Mean (MEXF 462; day 25, 285 mg/kg ip twice weekly, 5% DMSO solution): 172%
- tumour volume in % of the tumour volume at the beginning of the test, Mean (MEXF 462; day 28, 285 mg/kg ip twice weekly, 5% DMSO solution): 271%
- outcome of treatment (MEXF 462): pronounced slowing down of tumour growth

SMILES: CN(C)/N=N/c1ccc(C(=O)c2ccc(OCCC(=O)NCCS(=O)(=O)[O-])cc2)cc1.[Na+] [Example 9]
- solubility (Solubility in water; [4]): 666 mg/mL

SMILES: CN(C)N=Nc1ccc(C(=O)c2ccc(OCC(=O)[O-])cc2)cc1.[Na+] [Preparation 1]
- solubility (Solubility in water; recrystallisation from water, read-out: Solubility (converted)): 40 mg/mL

SMILES: CN(C)/N=N/c1ccc(C(=O)c2ccc(OCC(=O)NCC(=O)O)cc2)cc1 [TRIS salt]
- remission (MAXF 401; TRIS salt ip twice weekly, equimolar doses of 360, 400 and 500 mg/kg of the sodium salt, all doses): complete remission
- solubility in water at 25° C. (Solubility in water; 25° C.): about 250 g/litre
- solubility (Solubility in water; [4]): 250 mg/mL
